Laboratory results: publication PMC8443696, “Structural determinants and regulation of spontaneous activity in GABAA receptors” (Nature Communications, 2021)
“And” between values parts separate entries of the source, which are not always exact repeats. Identical values can stand only once. Like-named read-outs stand apart in the source and are kept apart here.

What was measured:
α4β3δ receptors [1] = target: T1, α4β3δ receptors (UniProt P18506+P63080+Q9D6F4); format: cell-based, mouse;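 as to GABA current, Supp. Fig. 2b: GABA applied at 0.3 µM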
T1 construct: expressed in transfected cells; host or cells: HEK 293
From the text: (§1) All components were obtained from Life Technologies.
(§2) Currents were acquired with Clampex ver.
(§3) Cells were voltage clamped at −40 mV.
(§4) All data were normalised to the fitted maximum response.

α4β3^DNTKδ receptors = α4β3^DNTKδ receptors (UniProt P18506+P63080+Q9D6F4, E204T/G196D/K198N/R205K)
From the text: as §1, §2, §3, §4

α4β3^K279Tγ2L receptors = α4β3^K279Tγ2L receptors (Mus musculus, UniProt P22723+P63080+Q9D6F4, K304T)
From the text: as §1, §2, §3, §4

α4β3γ2L receptors [2] = target: T2, α4β3γ2L receptors (Mus musculus, UniProt P22723+P63080+Q9D6F4); experiment: GABA concentration-response curves, whole-cell patch clamp in HEK cells; format: cell-based
T2 construct: expressed in transfected cells; host or cells: HEK 293
From the text: as §1, §2, §3, §4

α4β3δ receptors [3] = target: T1, α4β3δ receptors; format: cell-based, mouse; conditions: α4β3δ GABA (Fig. 1d); GABA 500 µM, PTX 100 µM; individual cells
From the text: as §1, §2, §3
(§5) For assessment of the efficacy of allosteric modulators on spontaneous activity, compounds were briefly applied (3–5 s) to achieve steady-state currents (IMod). […] The IMod was summed with IPTX (or subtracted for inhibitory modulators) and the Ispont calculated, as described by Eq. (2):2 Ispont(%)=[(IPTX+IMod)/(IPTX+IMax)]×100……………………………………

α1β3γ2L receptors = tested on: T3, α1β3γ2L receptors; experiment: Quantification of spontaneous activity (Ispont) in HEK cells, whole-cell patch clamp; format: cell-based, mouse; conditions: α1β3γ2L GABA (Fig. 1d); GABA 500 µM, PTX 100 µM; individual cells
T3 construct: expressed in transfected cells; host or cells: HEK 293
From the text: as §1, §2, §3, §5

α4β3 receptors = tested on: T4, α4β3 receptors; experiment: Agonist-evoked whole-cell currents and their modulation by Zn2+ / DS2 in HEK cells;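 as to GABA current, Supp. Fig. 2b: GABA applied at 0.3 µM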; format: cell-based, mouse; set-up: GABA current, Supp. Fig. 2b / GABA + DS2 current, Supp. Fig. 2b / GABA current, Supp. Fig. 2a: unit not given here
T4 construct: expressed in transfected cells; host or cells: HEK 293
From the text: as §1, §2, §3

α4β3δ receptors [4] = target: T1, α4β3δ receptors; experiment: as above; format: cell-based, mouse; conditions: GABA alone, individual cells
From the text: as §1, §2, §3

α4β3γ2L receptors [5] = target: T2, α4β3γ2L receptors; experiment: Agonist-evoked whole-cell currents and their modulation by Zn2+ in HEK cells; format: cell-based; conditions: GABA alone, individual cells
From the text: as §1, §2, §3

**Q.** `NCCCC(=O)O` [GABA, γ-aminobutyric acid] was tested. Which “GABA current normalised to the fitted maximum response” value (“GABA current normalised” for short) (α4β3δ receptors [1]; [GABA] 0.1, individual cells) did it give?
**A.** 0.5073 and 0.405 and 0.6131

**Q.** What about the nH (α4β3δ receptors [1]; individual cells) of the same compound?
**A.** 0.63 and 0.57 and 0.45 and 0.59 and 0.53 and 0.44 and 0.46 and 0.51

**Q.** And the Hill coefficient (α4β3δ receptors [1]; mean ± SEM, n = 9)?
**A.** 0.5 ± 0.02

**Q.** What about the “GABA current normalised” value (α4β3^DNTKδ receptors; α4β3DNTKδ, [GABA] 0.01, individual cells) of the same compound?
**A.** 0.0007434 and 0.002452 and 0.03107 and 0.001383 and 0.00433 and 0.003861 and 0.002036 and 0.01162 and 0 and 0.01893

**Q.** What about the “GABA current normalised” value (α4β3^DNTKδ receptors; α4β3DNTKδ, [GABA] 0.03, individual cells) of the same compound?
**A.** 0.007062 and 0.01195 and 0.04826 and 0.01383 and 0.009382 and 0.004413 and 0.007126 and 0.02054 and 0.004552 and 0.04327

**Q.** And the “GABA current normalised” value (α4β3^DNTKδ receptors; α4β3DNTKδ, [GABA] 0.1, individual cells)?
**A.** 0.04328 and 0.0495 and 0.09628 and 0.06221 and 0.03922 and 0.04794 and 0.04133 and 0.1252 and 0.03443 and 0.105

**Q.** And the “GABA current normalised” value (α4β3^DNTKδ receptors; α4β3DNTKδ, [GABA] 0.3, individual cells)?
**A.** 0.1541 and 0.16 and 0.2541 and 0.193 and 0.1198 and 0.1414 and 0.1295 and 0.114 and 0.2315

**Q.** And the “GABA current normalised” value (α4β3^DNTKδ receptors; α4β3DNTKδ, [GABA] 1, individual cells)?
**A.** 0.3807 and 0.3987 and 0.5261 and 0.4351 and 0.4134 and 0.5199 and 0.3786 and 0.5032

**Q.** And the “GABA current normalised” value (α4β3^DNTKδ receptors; α4β3DNTKδ, [GABA] 3, individual cells)?
**A.** 0.6642 and 0.6962 and 0.7428 and 0.6422 and 0.5604 and 0.7146 and 0.5958 and 0.7349 and 0.6146 and 0.6907

**Q.** What about the “GABA current normalised” value (α4β3^DNTKδ receptors; α4β3DNTKδ, [GABA] 10, individual cells) of the same compound?
**A.** 0.8725 and 0.8838 and 0.9794 and 0.868 and 0.8251 and 0.879 and 0.7932 and 0.8504 and 0.9182 and 0.913

**Q.** And the “GABA current normalised” value (α4β3^DNTKδ receptors; α4β3DNTKδ, [GABA] 30, individual cells)?
**A.** 0.9699 and 0.9833 and 0.9744 and 0.9032 and 0.8901 and 0.9131 and 0.9034 and 0.7914 and 0.976 and 0.9404

**Q.** What about the “GABA current normalised” value (α4β3^DNTKδ receptors; α4β3DNTKδ, [GABA] 100, individual cells) of the same compound?
**A.** 0.9851 and 0.9946 and 0.9484 and 0.9857 and 0.9989 and 1.0526 and 1.007 and 0.9834 and 1.041 and 0.9979

**Q.** What about the “GABA current normalised” value (α4β3^DNTKδ receptors; α4β3DNTKδ, [GABA] 300, individual cells) of the same compound?
**A.** 0.994 and 0.9896 and 0.9955 and 1.01 and 0.9818 and 1.0044 and 0.9828 and 1.081 and 0.9165 and 0.972

**Q.** What about the nH (α4β3^DNTKδ receptors; α4β3DNTKδ, individual cells) of the same compound?
**A.** 0.91 and 0.96 and 1.1 and 0.94 and 0.75 and 1.12 and 1.06 and 1

**Q.** And the Hill coefficient (α4β3^DNTKδ receptors; α4β3^DNTKδ, mean ± SEM, n = 10)?
**A.** 1.0 ± 0.04

**Q.** And the “GABA current normalised” value (α4β3^K279Tγ2L receptors; α4β3K279Tγ2L, [GABA] 0.001, individual cells)?
**A.** 0.2519 and 0 (3×) and 0.1524 and 0.248

**Q.** And the “GABA current normalised” value (α4β3^K279Tγ2L receptors; α4β3K279Tγ2L, [GABA] 0.003, individual cells)?
**A.** 0.1404 and 0.2434 and 0.2001 and 0.06943 and 0 (2×)

**Q.** And the “GABA current normalised” value (α4β3^K279Tγ2L receptors; α4β3K279Tγ2L, [GABA] 0.01, individual cells)?
**A.** 0.2519 and 0.1217 and 0.166 and 0.124 and 0.0823 and 0.03949

**Q.** And the “GABA current normalised” value (α4β3^K279Tγ2L receptors; α4β3K279Tγ2L, [GABA] 0.03, individual cells)?
**A.** 0.2267 and 0.2011 and 0.2911 and 0.2232 and 0.2097 and 0.1075

**Q.** And the “GABA current normalised” value (α4β3^K279Tγ2L receptors; α4β3K279Tγ2L, [GABA] 0.1, individual cells)?
**A.** 0.3277 and 0.4723 and 0.5922 and 0.2125 and 0.4931 and 0.3266

**Q.** What about the “GABA current normalised” value (α4β3^K279Tγ2L receptors; α4β3K279Tγ2L, [GABA] 0.3, individual cells) of the same compound?
**A.** 0.407 and 0.5504 and 0.3093 and 1.165 and 0.3595

**Q.** And the “GABA current normalised” value (α4β3^K279Tγ2L receptors; α4β3K279Tγ2L, [GABA] 1, individual cells)?
**A.** 0.6167 and 0.8427 and 0.9144 and 0.4437 and 0.6991 and 0.6708

**Q.** And the “GABA current normalised” value (α4β3^K279Tγ2L receptors; α4β3K279Tγ2L, [GABA] 3, individual cells)?
**A.** 0.7288

**Q.** What about the nH (α4β3^K279Tγ2L receptors; α4β3K279Tγ2L, individual cells) of the same compound?
**A.** 0.3987 and 0.6455 and 0.6824 and 0.44 and 1.925 and 0.7169

**Q.** And the Hill coefficient (α4β3^K279Tγ2L receptors; α4β3^K279Tγ2L, mean ± SEM, n = 6)?
**A.** 0.8 ± 0.2

**Q.** What about the “GABA current normalised” value (α4β3γ2L receptors [2]; [GABA] 0.01, individual cells) of the same compound?
**A.** 0.001664 and 0.002276 and 0.001669 and 0.01171 and 0.01147

**Q.** What about the “GABA current normalised” value (α4β3γ2L receptors [2]; [GABA] 0.03, individual cells) of the same compound?
**A.** 0.005144 and 0.004138 and 0.00402 and 0.01346 and 0.01822

**Q.** And the “GABA current normalised” value (α4β3γ2L receptors [2]; [GABA] 0.1, individual cells)?
**A.** 0.01452 and 0.01076 and 0.01069 and 0.03174 and 0.04395

**Q.** What about the “GABA current normalised” value (α4β3γ2L receptors [2]; [GABA] 0.3, individual cells) of the same compound?
**A.** 0.02596 and 0.02427 and 0.06574 and 0.085

**Q.** And the “GABA current normalised” value (α4β3γ2L receptors [2]; [GABA] 1, individual cells)?
**A.** 0.09711 and 0.06608 and 0.07868 and 0.1536 and 0.188

**Q.** What about the “GABA current normalised” value (α4β3γ2L receptors [2]; [GABA] 3, individual cells) of the same compound?
**A.** 0.2349 and 0.1582 and 0.203 and 0.3143 and 0.3127

**Q.** What about the “GABA current normalised” value (α4β3γ2L receptors [2]; [GABA] 10, individual cells) of the same compound?
**A.** 0.4431 and 0.3362 and 0.4922 and 0.6263 and 0.5927

**Q.** And the “GABA current normalised” value (α4β3γ2L receptors [2]; [GABA] 30, individual cells)?
**A.** 0.548 and 0.6886 and 0.7844 and 0.7581

**Q.** What about the “GABA current normalised” value (α4β3γ2L receptors [2]; [GABA] 100, individual cells) of the same compound?
**A.** 0.7417 and 0.7257 and 0.7724 and 0.8852 and 0.8968

**Q.** And the “GABA current normalised” value (α4β3γ2L receptors [2]; [GABA] 300, individual cells)?
**A.** 0.8265 and 0.8069 and 0.8364 and 0.9453 and 0.9104

**Q.** And the “GABA current normalised” value (α4β3γ2L receptors [2]; [GABA] 1000, individual cells)?
**A.** 0.9797 and 0.9449 and 0.994 and 1.0249 and 1.018

**Q.** What about the “GABA current normalised” value (α4β3γ2L receptors [2]; [GABA] 3000, individual cells) of the same compound?
**A.** 0.9857 and 0.9907 and 1.044 and 0.9972 and 0.9754

**Q.** And the nH (α4β3γ2L receptors [2]; individual cells)?
**A.** 0.6867 and 0.7293 and 0.7792 and 0.8713 and 0.7855

**Q.** What about the Hill coefficient (α4β3γ2L receptors [2]; mean ± SEM, n = 5) of the same compound?
**A.** 0.8 ± 0.03

**Q.** What about the “Ispont, IMax from GABA” value (α4β3δ receptors [3]) of the same compound?
**A.** 6.076% and 14.3782% and 18.0154% and 11.8804% and 19.3061% and 35.4037% and 16.1707%

**Q.** What about the “Ispont, IMax from GABA” value (α1β3γ2L receptors) of the same compound?
**A.** 0.9134% and 0.3206% and 5.267% and 3.501% and 0.7067% and 1.417%

**Q.** What about the “Whole-cell current activated by GABA” value (α4β3 receptors; 500 µM GABA, n = 7) of the same compound?
**A.** 237 ± 95 pA

**Q.** And the “GABA current, Supp. Fig. 2a” value (α4β3 receptors; GABA alone, individual cells)?
**A.** 0.31 and 0.16 and 0.22 and 0.23 and 0.064

**Q.** What about the “GABA current, Supp. Fig. 2b” value (α4β3 receptors; GABA alone, individual cells) of the same compound?
**A.** 0.04 and 0.13 and 0.11 and 0.10 and 0.27

**Q.** What about the “GABA current, Supp. Fig. 2a” value (α4β3δ receptors [4]) of the same compound?
**A.** 0.41 and 0.73 and 1.32 and 2.78

**Q.** What about the “GABA current, Supp. Fig. 2b” value (α4β3δ receptors [4]) of the same compound?
**A.** 0.53 and 0.27 and 0.065 and 0.26 and 0.65

**Q.** What about the “GABA current, Supp. Fig. 2a” value (α4β3γ2L receptors [5]) of the same compound?
**A.** 1.69 and 2.20 and 3.55 and 12.70
